Assay results reported in publication PMC9232501, “Results of the phase I CCTG IND.231 trial of CX-5461 in patients with advanced solid tumors enriched for DNA-repair deficiencies” (Nature Communications, 2022).
“And” between values parts separate entries of the source, which are not always exact repeats. Equal values may be shown once. “Also recorded” adds a separate entry of the source.

What was measured:
[1] = system: BRCA2 and BRCA1-deficient tumor models; settings: in vitro and in vivo, independently of RNA polymerase 1 inhibition; cited from earlier work
advanced solid tumors = experiment: Efficacy assessment by RECIST 1.1 (best response, ORR, DCR, duration of response); format: in vivo, human; parameters: partial_response_date (time at which PR was documented) / bestchange (best change of target lesions, Figure 3): unit not given here; settings: for bestchange (best change of target lesions, Figure 3): one value per patient; for time_on_study: individual patients
Method: Computed tomography of chest, abdomen, and pelvis was performed at baseline and every 8 weeks and as clinically indicated. All patients who had at least one post-baseline scan were included in efficacy analyses; patients with the non-target disease only were assessed for non-CR/non-PD and PD. Patients were evaluated for CR, PR, SD, or PD as defined by RECIST 1.1[23]. The objective response rate (ORR = CR+PR) and disease control rate (DCR = CR + PR + SD ≥ 6 months) are reported. Duration of response was defined as the time from when CR or PR was first documented until the first date that progressive disease was objectively documented or the time of the last disease assessment.

[2] = system: γ-H2AX (double-stranded DNA breaks); experiment: γ-H2AX immunofluorescent staining with and without UVA radiation; format: cell-based; settings: CX5461 10^-8M, 5x10-8M; PDS 20 x 10^-6M
Method: Human epidermal keratinocytes (HEKa) cells were sourced from Thermo Fisher Scientific, and were grown in EpiLife™ Medium with HKGS. HAP WT and XPA knockout cell lines (Horizon Discovery) were cultured in IMDM, 10% FCS. Human HCT116 cells, U2OS cells (ATCC) were grown in McCoy’s 5 A medium with 10% FBS and L-glutamine. All cell lines are mycoplasma free and have been authenticated by STR or SNP profiling. CX-5461 was provided by Senhwa Biosciences, Inc. PDS is from Sigma-Aldrich, BRACO-19 from Alfa Chemistry, PhENDC3 is from Sigma-Aldrich, γ -H2AX antibody from Abcam (1:1000 for IF) and CPD antibody (1:1500) from Cosmo Bio Ltd. (Catalog number: CAC-NM-DAD-001). The WST-1 assay was performed as previously described, γ H2AX foci staining was performed as previously described. Immunofluorescence staining of CPD was performed according to the protocol from the manufacturer (Cosmo Bio Ltd).
Supplementary Figures and Tables
Supplementary Figure 1. UVA radiation increased double-stranded DNA breaks and ROS.
Representative pictures of g -H2AX immunofluorescent staining with and without UVA radiation, for […]
condition, quantified in (b) Quantile and mean intensity of g-H2AX level per cell, vertical axis. UV and drug factor conditions, horizontal axis. […] Number of cells as in Figure 5 g (c) The ratio of ROS level measured after UVA irradiation versus before UVA irradiation was calculated. […]

[3] = BRCA1/2, PALB2 or TP53 germline or somatic mutations
[4] = BRCA1/2 or PALB2 germline or somatic mutations
[5] = dose_level 2, Breast, patient 400006
[6] = dose_level 4, Ovarian, patient 400035
[7] = dose_level 8, Breast, patient 400012
[8] = dose_level 9, Breast, patient 400030

Cc1cnc(CNC(=O)c2c(=O)c3ccc(N4CCCN(C)CC4)nc3n3c2sc2ccccc23)cn1 [CX-5461]
synthetic lethality [1]: synthetically lethal
patients with confirmed PR (advanced solid tumors; 3 breast, 1 ovarian, all with germline DNA-repair abnormalities): Four
overall DCR (CR + PR + SD ≥ 6 months) (advanced solid tumors; 8/40, 95% CI: 9.1–35.7%): 20%
Best Response Complete Response (CR), N patients (advanced solid tumors; All treated patients N=40): 0
Best Response Partial Response (PR), N patients (advanced solid tumors; All treated patients N=40): 4
Best Response Progressive Disease (PD), N patients (advanced solid tumors; All treated patients N=40): 21
Best Response Stable Disease (SD), N patients (advanced solid tumors; All treated patients N=40): 11
Response Duration Median (range), SD (advanced solid tumors; All treated patients N=40, range 2.3-10.9): 3.6 Mo.
Response Duration Median (range), PR (advanced solid tumors; All treated patients N=40, range 5.5-8.2): 6.5 Mo.
Best Response Partial Response (PR), N patients (advanced solid tumors; [3]): 4
Best Response Progressive Disease (PD), N patients (advanced solid tumors; [3]): 15
Best Response Stable Disease (SD), N patients (advanced solid tumors; [3]): 7
Response Duration Median (range), PR (advanced solid tumors; [3]): 6.5 (5.5-8.2) Mo.
Response Duration Median (range), SD (advanced solid tumors; [3]): 3.5 (3-9.2) Mo.
Best Response Partial Response (PR), N patients (advanced solid tumors; [4]): 3
Best Response Progressive Disease (PD), N patients (advanced solid tumors; [4]): 12
Best Response Stable Disease (SD), N patients (advanced solid tumors; [4]): 7
Response Duration Median (range), PR (advanced solid tumors; [4]): 6.3 (5.5-6.8) Mo.
Response Duration Median (range), SD (advanced solid tumors; [4]): 3.5 (3-9.2) Mo.
bestchange (best change of target lesions, Figure 3) (advanced solid tumors; DOSE_LEV 0): 27.9 and 20.3 and 4.4
bestchange (best change of target lesions, Figure 3) (advanced solid tumors; DOSE_LEV 1): 13.1 and 6 and 1.4 and -27.5
bestchange (best change of target lesions, Figure 3) (advanced solid tumors; DOSE_LEV 2): -66.7 and 51.2 and 47.1
bestchange (best change of target lesions, Figure 3) (advanced solid tumors; DOSE_LEV 3): 18.9 and 4 and 74.8
bestchange (best change of target lesions, Figure 3) (advanced solid tumors; DOSE_LEV 4): -43.4 and 50.8 and 41.7
bestchange (best change of target lesions, Figure 3) (advanced solid tumors; DOSE_LEV 5): 17.1 and 6.4
bestchange (best change of target lesions, Figure 3) (advanced solid tumors; DOSE_LEV 6): -12.9 and -19.4 and 54
bestchange (best change of target lesions, Figure 3) (advanced solid tumors; DOSE_LEV 7): 36.2 and 20.5 and 9.7
bestchange (best change of target lesions, Figure 3) (advanced solid tumors; DOSE_LEV 8): 23.1 and 10.8 and 5.6 and 0 and -62.5 and 46.6
bestchange (best change of target lesions, Figure 3) (advanced solid tumors; DOSE_LEV 9): 7.7 and -50
Best Response Progressive Disease (PD), N patients (advanced solid tumors; Prior PARP Inhibitor N=8): 6
Best Response Stable Disease (SD), N patients (advanced solid tumors; Prior PARP Inhibitor N=8): 1
Best Response Partial Response (PR), N patients (advanced solid tumors; Prior Platinum N=32): 2
Best Response Progressive Disease (PD), N patients (advanced solid tumors; Prior Platinum N=32): 18
Best Response Stable Disease (SD), N patients (advanced solid tumors; Prior Platinum N=32): 8
Responses observed, share of patients (advanced solid tumors; abstract, primarily in patients with defective homologous recombination): 14%
ORR (advanced solid tumors; all treated, 4/40, 95% CI: 2.8–23.7): 10%
ORR (advanced solid tumors; breast, ovarian, pancreas tumor types, 4/29, 95% CI: 3.9–31.7%): 14%
time_on_study (advanced solid tumors; dose_level 0 (50 mg/m^2 Day 1 & 8)): 4.5667 months and 3.9425 months and 2.037 months and 1.8398 months
time_on_study (advanced solid tumors; dose_level 1 (100 mg/m^2 Day 1 & 8)): 1.1499 months and 5.5195 months and 3.2526 months
time_on_study (advanced solid tumors; dose_level 2 (150 mg/m^2 Day 1 & 8)): 10.4476 months and 1.1828 months and 0.7228 months and 0.6899 months
partial_response_date (time at which PR was documented) (advanced solid tumors; [5]): 1.643
partial_response_duration (advanced solid tumors; [5]): 6.275 months
time_on_study (advanced solid tumors; dose_level 3 (200 mg/m^2 Day 1 & 8)): 7.3265 months and 1.1828 months and 0.6899 months and 0.46 months
time_on_study (advanced solid tumors; dose_level 4 (250 mg/m^2 Day 1 & 8)): 14.7187 months and 1.8398 months and 1.807 months
partial_response_date (time at which PR was documented) (advanced solid tumors; [6]): 6.407
partial_response_duration (advanced solid tumors; [6]): 8.246 months
time_on_study (advanced solid tumors; dose_level 5 (325 mg/m^2 Day 1 & 8)): 1.2485 months and 1.1828 months and 1.0185 months
time_on_study (advanced solid tumors; dose_level 6 (475 mg/m^2 Day 1 & 8)): 11.039 months and 3.8768 months and 1.8398 months
time_on_study (advanced solid tumors; dose_level 7 (325 mg/m^2 Day 1, 8 & 15)): 1.8398 months and 1.807 months and 0.8871 months
time_on_study (advanced solid tumors; dose_level 8 (475 mg/m^2 Day 1, 8 & 15)): 10.809 months and 7.3922 months and 2.1355 months and 2.0698 months and 0.9199 months
partial_response_date (time at which PR was documented) (advanced solid tumors; [7]): 3.45
partial_response_duration (advanced solid tumors; [7]): 6.801 months
time_on_study (advanced solid tumors; dose_level 9 (650 mg/m^2 Day 1, 8 & 15)): 7.8193 months and 2.9897 months and 1.6099 months and 1.577 months and 1.0185 months
partial_response_date (time at which PR was documented) (advanced solid tumors; [8]): 1.708
partial_response_duration (advanced solid tumors; [8]): 5.487 months
objective responses in patients who had received prior platinum (advanced solid tumors; in vivo): 2/32
patients with durable SD (≥6 months) (advanced solid tumors; of 11 SD): 4
Objective response (all PR), patients (advanced solid tumors; of 32 evaluable patients, best response in target lesions): 4
shrinkage in target lesions (advanced solid tumors; one patient, gBRCA2-related pancreatic cancer, best response SD): 13%
best response (advanced solid tumors; one patient, metastatic breast cancer, germline PALB2 frameshift mutation): confirmed PR
DNA damage (γ-H2AX) in the presence of UVA [2]: synergistically increased; also recorded: markedly increased
